The results in this text go back to PMC9283466, “In silico identification of two peptides with antibacterial activity against multidrug-resistant Staphylococcus aureus” (NPJ Biofilms and Microbiomes, 2022).

As a reminder, the IC50 is the point on the concentration scale where inhibition reaches its midpoint.

Experiment [1] concerns S. aureus USA300 BAA-1717. The experiment can be described thus: microbe, parasite or virus in culture. Conditions: Staphylococcus aureus, BAA-1717 / MRSA / USA300. It counts as cell-based, Staphylococcus aureus. The method, then:
(§1) To determine the antimicrobial activity of the new antimicrobial peptides, HG2 and HG4, their minimum inhibitory concentrations (MICs) were determined by broth microdilution method[51] in cation adjusted Mueller Hinton broth (MHB) following the International Organisation for Standardisation (ISO) 20776-1 standard for MIC testing using a final bacterial inoculum of 5 × 10^5 CFU/ml[52]. […] The peptides dissolved in sterile distilled water were added to bacteria culture and incubated overnight at appropriate conditions. The MICs of the peptides and comparator antibiotics were recorded after 18–24 h. The minimum bactericidal concentrations (MBCs) were also determined and were taken as the lowest concentration of the antimicrobial that prevented the growth of bacterial cells after the subculture of cells (from MIC treatment) onto antibiotic-free media.

In another experiment the test system is S. aureus EMRSA-15. Nature of the experiment: microbe, parasite or virus in culture. It counts as cell-based, Staphylococcus aureus. Particulars: Staphylococcus aureus. The protocol: as §1
Another experiment has as its system S. aureus ATCC 33591. The experiment can be described thus: microbe, parasite or virus in culture. It counts as cell-based, Staphylococcus aureus. Particulars: Staphylococcus aureus. The protocol:
as §1

For the next experiment, the system named is EMRA-15. The experiment can be described thus: microbe, parasite or virus in culture. Format: cell-based, Staphylococcus aureus. The method, then: as §1
The test system of a further experiment is S. aureus. The experiment can be described thus: microbe, parasite or virus in culture. It counts as cell-based, Staphylococcus aureus. The method, then: as §1
For a further experiment, the system named is E. coli. Nature of the experiment: microbe, parasite or virus in culture. Format: cell-based, Escherichia coli. The method, then: as §1
The test system of the next experiment is P. aeruginosa. The experiment can be described thus: microbe, parasite or virus in culture. Format: cell-based, Pseudomonas aeruginosa. The method, then: as §1
For the next experiment, the system named is Ent. faecalis. The experiment can be described thus: microbe, parasite or virus in culture. Format: cell-based, Enterococcus faecalis. The protocol:
as §1

In a further experiment the test system is Sal. typhimurium. The experiment can be described thus: microbe, parasite or virus in culture. It counts as cell-based, Salmonella enterica serovar Typhimurium. The method, then: as §1
The next experiment has as its system List. monocytogenes. Nature of the experiment: microbe, parasite or virus in culture. Format: cell-based, Listeria monocytogenes. The protocol:
as §1

The subject of experiment [2] is MRSA USA300 cells. The experiment can be described thus: Serial passage / resistance assay. Particulars: sub-MIC exposure over 20 days, MRSA USA300. Format: cell-based, Staphylococcus aureus. The protocol:
In vitro evaluation of the potential for MRSA USA3000 cells to develop resistance to HG2 and HG4 was performed as follows. […] Cultures from the highest concentration that supported growth were diluted 1: 1000 in MHB and used to provide the inoculum for the next passage day. This process was performed for a total duration of 20 days. Any putative mutants recovered were isolated via streak dilution for three generations on MHA, prior to further characterisation.

The subject of experiment [3] is MRSA USA300 cells. Nature of the experiment: Time-kill kinetics. It counts as cell-based, Staphylococcus aureus. Particulars: 3x MIC, comparator antibiotics, time not stated. The protocol: The bactericidal activity of HG2, HG4 and comparator antimicrobial compounds was assessed using exponential-phase cultures[14] of MRSA USA300 grown in MHB (1 × 10^6-8 CFU/ml). […] Samples were taken at different time points, serially diluted and inoculated onto MH agar plates using the spread plate technique. After overnight incubation, the colony-forming units per millilitre of cell culture (CFU/ml) was calculated. Experiments were performed in quadruplicates.

Experiment [4] concerns LPS-driven NF-kB activation, eLUCidate Raw 264.7 NF-kB reporter cell line. The experiment can be described thus: Anti-inflammatory activity, NF-kB luciferase reporter. It counts as cell-based, murine. Conditions: Mus musculus, RAW264.7; 10 ng/ml LPS from E. coli, 6 h; read-out: IC50, LPS-mediated inflammation. The protocol:
(§2) The inhibitory activity of HG2, HG4 and comparator compounds against LPS and LTA was assessed using eLUCidate™ Raw 264.7 NF-kB reporter cell line (AMSBIO) as previously described. The eLUCidate NF-kB reporter cell line is a stably transfected Raw 264.7 cell line which expresses the Renilla luciferase reporter gene under the transcriptional control of the NF-kB response element, a key transcription factor involved in immune and inflammatory responses. This reporter cell line has been used to measure the induction of various toll-like receptors (TLR) by ligands, including LPS and LTA, therefore providing an effective way to evaluate inhibitors of their activations. Briefly, cells were grown and maintained following the manufacturer’s instructions in Dulbecco’s modified essential medium (DMEM) supplemented with 10% fetal calf serum (FCS), 1% L-glutamine, 1% antibiotics (Invitrogen) and containing 3 µg/ml of puromycin (Sigma-Aldrich, UK). To test the inhibitory activity of HG2 and HG4 on LPS or LTA-driven NF-kB activation, eLUCidate™ Raw 264.7 cells grown on 75 cm^2 flasks were detached using trypsin-EDTA solution (Thermofisher, UK) and seeded into 96-well cell culture plates (Greiner Bio-one, UK) at ~25,000 cells per well (counted using Mallasez’s chamber). The next day, wells were emptied, and cells were exposed to optimal concentrations of LPS or LTA determined from preliminary experiments, (i.e. 10 ng/ml of LPS from E. coli or 10 µg/ml of LTA from S. aureus (Invivogen, UK)) in the presence of increasing concentrations of HG2 or HG4 (from 0 to 500 µg/ml, serial 1:2 dilutions). Pyrrolidine dithiocarbamate (PDTC, 100 µM) and polymyxin B (PMB, 100 µM) (Sigma-Aldrich, UK) were used as positive controls based on their well-known activity as anti-inflammatory molecules and blockers/neutralisers of LPS and LTA, respectively. Importantly, all steps were performed using non-pyrogenic plastics and RNase/DNase molecular biology tips to limit the risk of the presence of a trace of LPS/LTA. After 6 h incubation at 37 °C and 5% CO2, wells were emptied, and the cells were treated with 70 µl of ice-cold PBS containing 1% Triton X-100. After 10 min incubation on ice under orbital shaking at 200 rpm, 50 µL of cell lysates were collected and transferred into white 96-well luminescence plates (Dominique Dutscher) already containing 100 µL of Renilla luciferase substrate (Yelen, France). Luminescence signals of the wells were immediately measured using a microplate reader (Biotek Synergy Mx, UK). The luminescence values were expressed as a percentage of control inflammation corresponding to values obtained after treatment with LPS or LTA in the absence of an inhibitor. The IC50 values of PDTC, PMB, HG2 or HG4 on LPS or LTA-mediated inflammation (i.e. the concentration of molecule causing a reduction of 50% of the luciferase’s induction caused by LPS or LTA) were calculated using GraphPad® Prism 7 software.

Experiment [5] deals with LTA-driven NF-kB activation, eLUCidate Raw 264.7 NF-kB reporter cell line. Described as above. It counts as cell-based, murine. Conditions: Mus musculus, RAW264.7; 10 µg/ml LTA from S. aureus, 6 h; read-out: IC50, LTA-mediated inflammation. The protocol:
as §2

The next experiment deals with S. aureus RN4220. Nature of the experiment: MIC, broth microdilution. It counts as cell-based, Staphylococcus aureus. Conditions: Staphylococcus aureus, sensitive, read-out: MIC. The method, then:
as §1

For the next experiment, the system named is E. coli K12. The experiment can be described thus: microbe, parasite or virus in culture. Format: cell-based, Escherichia coli. Particulars: Escherichia coli, K12. The method, then:
as §1

For a further experiment, the system named is P. aeruginosa PA01. The experiment can be described thus: microbe, parasite or virus in culture. It counts as cell-based, Pseudomonas aeruginosa. Conditions: Pseudomonas aeruginosa, PA01. The protocol: as §1
The next experiment deals with Ent. faecalis JH2-2. The experiment can be described thus: microbe, parasite or virus in culture. Format: cell-based, Enterococcus faecalis. Conditions: Enterococcus faecalis, JH22. The protocol: as §1
Another experiment deals with Sal. typhimurium SL1344. The experiment can be described thus: microbe, parasite or virus in culture. Conditions: Salmonella enterica, TYPHIMURIUM
Format: cell-based, Salmonella enterica serovar Typhimurium. The protocol: as §1

In experiment [6] the test system is L. monocytogenes NCTC 11994. The experiment can be described thus: microbe, parasite or virus in culture. Format: cell-based, Listeria monocytogenes. Conditions: Listeria monocytogenes, NCTC11994. The protocol:
as §1

Setting [7] is: S. aureus USA300 BAA-1717, MRSA, read-out: MIC.

The structures appear in SMILES notation. ≈ marks a conversion by molar mass, not a printed value. Read-outs that look alike come from different tables or passages of the source. Peptide text beside a SMILES is read from it.

`C[C@H]1COc2c(N3CCN(C)CC3)c(F)cc3c(=O)c(C(=O)O)cn1c23` [Levof, levofloxacin]: the MIC turned out to be 0.0075 µg/mL (≈ 0.0208 µM) in experiment [1] (setting [7]); 1 µg/mL (≈ 2.77 µM) with S. aureus EMRSA-15 (S. aureus EMRSA-15, resistances MRSA, Cip, read-out: MIC); 0.015 µg/mL (≈ 0.0415 µM) with S. aureus ATCC 33591 (S. aureus ATCC 33591, MRSA, read-out: MIC).

As to `CC[C@H](C)[C@H](NC(=O)[C@H](CC(C)C)NC(=O)[C@H](CC(C)C)NC(=O)[C@H](CC(C)C)NC(=O)[C@H](CCCCN)NC(=O)[C@H](CCCCN)NC(=O)[C@@H](N)CCSC)C(=O)N[C@@H](CC(C)C)C(=O)N[C@@H](Cc1ccccc1)C(=O)N[C@@H](CS)C(=O)N[C@@H](CC(C)C)C(=O)N[C@@H](C)C(=O)N[C@@H](CC(C)C)C(=O)N[C@@H](C)C(=O)N[C@@H](CC(C)C)C(=O)N[C@@H](C)C(=O)NCC(=O)N[C@@H](CS)C(=O)N[C@@H](CCCCN)C(=O)N[C@@H](CCCCN)C(=O)N[C@@H](C)C(=O)N1CCC[C@H]1C(N)=O` [Linear HG2] (H-MKKLLLILFCLALALAGCKKAP-NH2; N-terminus and C-terminus assumed), the “Minimum inhibitory Concentrations MICs” value in the experiment with EMRA-15, in the experiment on S. aureus, in the experiment on E. coli, in the experiment on P. aeruginosa, in the experiment with Ent. faecalis and with Sal. typhimurium was above 1024 µg/mL each time. In the experiment on List. monocytogenes, the “Minimum inhibitory Concentrations MICs” value is above 1024 µg/mL.

With `C/C(=C\C(=O)OCCCCCCCCC(=O)O)C[C@@H]1OC[C@H](C[C@@H]2O[C@H]2[C@@H](C)[C@H](C)O)[C@@H](O)[C@H]1O` [Mupirocin, reference compound], the “fold increase in MIC during serial passage” value in the experiment with MRSA USA300 cells [2] was 32 fold. In addition, the MIC in [1] (setting [7]) worked out at 0.12 µg/mL (≈ 0.24 µM). In addition, in the experiment with MRSA USA300 cells [3], the “reduction in viable cells (time-kill)” value is listed as at least 2 log10 CFU/ml.

With `S=C(S)N1CCCC1` [PDTC, Pyrrolidine dithiocarbamate, reference compound], the IC50 in [4] came out at 10.7 ± 1.2 µg/mL; in experiment [5], 10.8 ± 1.29 µg/mL.

As to `CN[C@H](CC(C)C)C(=O)N[C@H]1C(=O)N[C@@H](CC(N)=O)C(=O)N[C@H]2C(=O)N[C@H]3C(=O)N[C@H](C(=O)N[C@H](C(=O)O)c4cc(O)cc(O)c4-c4cc3ccc4O)[C@H](O)c3ccc(c(Cl)c3)Oc3cc2cc(c3O[C@@H]2O[C@H](CO)[C@@H](O)[C@H](O)[C@H]2O[C@H]2C[C@](C)(N)[C@H](O)[C@H](C)O2)Oc2ccc(cc2Cl)[C@H]1O` [Vancomycin], the MIC was determined as 1 µg/mL (≈ 0.69 µM) with S. aureus RN4220; 2 µg/mL (≈ 1.38 µM) in experiment [1]; 2 µg/mL (≈ 1.38 µM) in the experiment with S. aureus EMRSA-15 (MRSA); 2 µg/mL (≈ 1.38 µM) in the experiment with S. aureus ATCC 33591 (ATCC 33591 / MRSA); 128 µg/mL (≈ 88.3 µM) in the experiment with E. coli K12; 64 µg/mL (≈ 44.2 µM) with P. aeruginosa PA01. The figures for the MIC (in the experiment on Ent. faecalis JH2-2; in the experiment with Sal. typhimurium SL1344; in experiment [6]) were 64 µg/mL (≈ 44.2 µM), 256 µg/mL (≈ 177 µM) and 64 µg/mL (≈ 44.2 µM), respectively. For the same molecule, in the experiment with MRSA USA300 cells [3], the “reduction in viable cells (time-kill)” value is reported as at least 2 log10 CFU/ml.
